Assay results as given in PubChem BioAssay AID192 (DTP/NCI, 2004).
Several values for one entry are separate records, joined by “and”; a condition that tells them apart may be missing. Identical values can stand only once. Toxic doses and inconclusive results are not listed. The calls were made as follows: active = survival T/C of 150% or more; inactive = T/C below 125% in these data.

System: BDF1 mice, B16 melanoma ip, median survival T/C
Test: NCI In Vivo Anticancer Drug Screen. Data for tumor model B16 Melanoma (intraperitoneal) in B6D2F1 (BDF1) mice
Details: endpoint: median survival time, schedule: Q01DX009 (ip), higher = longer survival
Method in brief: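 Values are ratios of treated (T) to vehicle-control (C) measurements of survival or tumor size in tumor-bearing mice.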

[1] = dose: 100.0 mg/kg/injection, vehicle: saline
[2] = dose: 200.0 mg/kg/injection, vehicle: saline
[3] = dose: 50.0 mg/kg/injection, vehicle: Klucel (hydroxypropylcellulose) (HPC)
[4] = dose: 100.0 mg/kg/injection, vehicle: Klucel (hydroxypropylcellulose) (HPC)
[5] = dose: 200.0 mg/kg/injection, vehicle: Klucel (hydroxypropylcellulose) (HPC)
[6] = dose: 50.0 mg/kg/injection, vehicle: saline

Measured: T/C

O=C([O-])C[n+]1ccccc1
inactive: [1] 108 % of control | [2] 103 % of control

O=[N+]([O-])O.[NH-]C1CCCCC1[NH-].[NH-]C1CCCCC1[NH-].[NH-]C1CCCCC1[NH-].[OH-].[OH-].[OH-].[Pt+4].[Pt+4].[Pt+4] (centres undefined)
inactive: dose: 0.25 mg/kg/injection, vehicle: water 109 % of control and 119 % of control | dose: 0.5 mg/kg/injection, vehicle: water 113 % of control and 123 % of control

CCN(CC)c1ccc(C=Nc2cccc(C(F)(F)F)c2)cc1
inactive: [3] 103 % of control | [4] 96 % of control | [5] 96 % of control

C1CC[N-]CC1.CC(=N\O)/C(C)=N/O.CC(=N\O)/C(C)=N/O.[CH2-]C.[Co+2]
inactive: dose: 25.0 mg/kg/injection, vehicle: Klucel (hydroxypropylcellulose) (HPC) 111 % of control | [3] 102 % of control

COCCNCCN1CCN(CCCN2c3ccccc3Sc3ccc(C(F)(F)F)cc32)CC1
inactive: dose: 3.75 mg/kg/injection, vehicle: saline 109 % of control | dose: 7.5 mg/kg/injection, vehicle: saline 107 % of control | dose: 15.0 mg/kg/injection, vehicle: saline 111 % of control | dose: 30.0 mg/kg/injection, vehicle: saline 88 % of control

CC(=O)c1cccc(NC(=O)Nc2ccccc2)c1
inactive: [4] 96 % of control | [5] 91 % of control | dose: 400.0 mg/kg/injection, vehicle: Klucel (hydroxypropylcellulose) (HPC) 96 % of control

CN(C)N=Nc1cccc(C(N)=O)c1
inactive: dose: 5.0 mg/kg/injection, vehicle: Klucel (hydroxypropylcellulose) (HPC) 103 % of control and 121 % of control | dose: 10.0 mg/kg/injection, vehicle: Klucel (hydroxypropylcellulose) (HPC) 106 % of control and 113 % of control | dose: 20.0 mg/kg/injection, vehicle: Klucel (hydroxypropylcellulose) (HPC) 111 % of control and 123 % of control | dose: 80.0 mg/kg/injection, vehicle: Klucel (hydroxypropylcellulose) (HPC) 101 % of control and 118 % of control | [1] 46 % of control | dose: 160.0 mg/kg/injection, vehicle: Klucel (hydroxypropylcellulose) (HPC) 113 % of control

CN1CCCN(C(c2ccccc2)c2ccc(Cl)cc2)CC1 (centres undefined)
inactive: dose: 1.95 mg/kg/injection, vehicle: saline 92 % of control | dose: 3.9 mg/kg/injection, vehicle: saline 105 % of control | dose: 7.81 mg/kg/injection, vehicle: saline 105 % of control | dose: 15.62 mg/kg/injection, vehicle: saline 97 % of control | dose: 31.25 mg/kg/injection, vehicle: saline 94 % of control

C1CN2CN3CCN(CN1C3)C2
inactive: dose: 12.5 mg/kg/injection, vehicle: saline 99 % of control and 114 % of control | dose: 25.0 mg/kg/injection, vehicle: saline 103 % of control and 113 % of control | [6] 123 % of control

CC(=O)C(N)CCC(=O)O (centres undefined)
inactive: [6] 105 % of control | [1] 113 % of control | [2] 97 % of control

CC1=C2CC(C)(C)/C=C\C(=O)/C(C)=C\C3=C[C@H](C)C[C@]3(O2)C1=O
inactive: dose: 1.5 mg/kg/injection, vehicle: saline 93 % of control | dose: 3.0 mg/kg/injection, vehicle: saline 100 % of control | dose: 6.0 mg/kg/injection, vehicle: saline 100 % of control | dose: 12.0 mg/kg/injection, vehicle: saline 106 % of control | dose: 16.0 mg/kg/injection, vehicle: saline with Tween-80 97 % of control | dose: 32.0 mg/kg/injection, vehicle: saline with Tween-80 92 % of control
